≈ marks a conversion by molar mass, not a printed value. Calls of active or inactive are those of the source. The rule behind the calls is not given here.
Columns and labels:
Pichia kudriavzevii [1] = assay: Antifungal activity against Candida krusei ATCC 6258 assessed as reduction in microbial growth; assay type: functional
Candida parapsilosis [2] = assay: Antifungal activity against Candida parapsilosis ATCC 22019 assessed as reduction in microbial growth; assay type: functional; conditions: Lodderomyces parapsilosis
Nakaseomyces glabratus [3] = assay: Antifungal activity against Candida glabrata ATCC 90030 assessed as reduction in microbial growth; assay type: functional
Candida albicans [4] = assay: Antifungal activity against Candida albicans ATCC 10231 assessed as reduction in microbial growth; assay type: functional
[5] = Ratio of MFC for fungicidal activity against Saccharomyces cerevisiae ATCC 9763 to MIC for antifungal activity against Saccharomyces cerevisiae ATCC 9763; assay type: functional
Saccharomyces cerevisiae [6] = assay: Fungicidal activity against Saccharomyces cerevisiae ATCC 9763; assay type: functional
Saccharomyces cerevisiae [7] = assay: Antifungal activity against Saccharomyces cerevisiae ATCC 9763 assessed as reduction in microbial growth; assay type: functional
Pichia kudriavzevii [8] = assay: Fungicidal activity against Candida krusei DSM 6128; assay type: functional
Candida albicans [9] = assay: Antifungal activity against fluconazole-sensitive Candida albicans F2 assessed as reduction in microbial growth; assay type: functional
Candida albicans [10] = assay: Antifungal activity against fluconazole-sensitive Candida albicans B3 assessed as reduction in microbial growth; assay type: functional
Candida albicans [11] = assay: Fungicidal activity against Candida albicans ATCC 10231; assay type: functional
Candida albicans [12] = assay: Antifungal activity against fluconazole-resistant Candida albicans Gu5 assessed as reduction in microbial growth; assay type: functional
Candida albicans [13] = assay: Antifungal activity against fluconazole-resistant Candida albicans F5 assessed as reduction in microbial growth; assay type: functional
Candida albicans [14] = assay: Antifungal activity against fluconazole-resistant Candida albicans B4 assessed as reduction in microbial growth; assay type: functional
Nakaseomyces glabratus [15] = assay: Fungicidal activity against Candida glabrata DSM 11226; assay type: functional
Candida albicans [16] = assay: Antibiofilm activity against Candida albicans ATCC 10231 at concentration of 0.25 MIC by XTT assay; assay type: functional, organism-based
Candida albicans [17] = assay: Antifungal activity against fluconazole-sensitive Candida albicans Gu4 assessed as reduction in microbial growth; assay type: functional
Saccharomyces cerevisiae [18] = assay: Inhibition of Saccharomyces cerevisiae DNA topoisomerase 2 assessed as decrease in relaxation of supercoiled DNA using supercoiled pBR322 plasmid DNA at 1 to 200 uM gel electrophoresis method; conditions: dose 1-200 µM
Candida albicans [19] = assay: Growth inhibition of Candida albicans ATCC 10231 assessed as reduction in yeast to mycelium formation by measuring reduction in hyphal growth at concentration of 0.25 MIC after 3 hrs in G1cNAc medium by light microscopic method relative to control; assay type: functional, organism-based
Candida albicans [20] = assay: Growth inhibition of Candida albicans ATCC 10231 assessed as reduction in yeast to mycelium formation by measuring reduction in hyphal growth at 0.25 MIC after 3 hrs by light microscopic method relative to control; assay type: functional
Saccharomyces cerevisiae [21] = assay: Inhibition of Saccharomyces cerevisiae DNA topoisomerase 2 assessed as decrease in relaxation of supercoiled DNA using supercoiled pBR322 plasmid DNA at 100 to 150 uM gel electrophoresis method; conditions: dose 100-150 µM
Candida parapsilosis [22] = assay: Fungicidal activity against Candida parapsilosis DSM 5784; assay type: functional; conditions: Lodderomyces parapsilosis

Row | SMILES | MIC90 (Pichia kudriavzevii [1]) [µg/mL] | MIC90 (Candida parapsilosis [2]) [µg/mL] | MIC90 (Nakaseomyces glabratus [3]) [µg/mL] | MIC90 (Candida albicans [4]) [µg/mL] | Ratio [5] | MFC (Saccharomyces cerevisiae [6]) [µg/mL] | MIC90 (Saccharomyces cerevisiae [7]) [µg/mL] | MIC90 (Candida albicans [9]) [µg/mL] | MIC90 (Candida albicans [10]) [µg/mL] | MIC90 (Candida albicans [12]) [µg/mL] | MIC90 (Candida albicans [13]) [µg/mL] | MIC90 (Candida albicans [14]) [µg/mL] | MIC90 (Candida albicans [17]) [µg/mL] | other results
1 | CN(CCCNc1c2ccccc2nc2cccc([N+](=O)[O-])c12)CCCNc1c2ccccc2nc2cccc([N+](=O)[O-])c12 | > 16 | > 16 | > 16 | > 16 | >=1 | 4 (≈ 6.78 µM) | 4 |  |  |  |  |  |  | 
2 | Cc1ccc([N+](=O)[O-])c2c(NCCOC(=O)[C@@H](N)CCCCN)c3ccccc3nc12 | 16 | 64 | 32 | 4 | >=1 | 2 (≈ 4.7 µM) | 1 | 8 | 16 | > 64 | > 64 | > 64 | 8 | MFC (Pichia kudriavzevii [8]): 32 µg/mL (≈ 75.2 µM); MFC (Candida albicans [11]): 16 µg/mL (≈ 37.6 µM); MFC (Nakaseomyces glabratus [15]): 64 µg/mL (≈ 150 µM); Activity (Candida albicans [16]): inactive; inhibition (Saccharomyces cerevisiae [18]): inactive
3 | Cc1ccc([N+](=O)[O-])c2c(NCCCNC(=O)[C@@H](N)CCCCN)c3ccccc3nc12 | 64 | > 64 | > 64 | 32 | >=1 | 32 (≈ 73 µM) | 32 | > 64 | > 64 | > 64 | > 64 | > 64 | > 64 | growth inhibition (GI) (Candida albicans [19]): inactive; growth inhibition (GI) (Candida albicans [20]): 100%; inhibition (Saccharomyces cerevisiae [18]): Active
4 | O=C(CCCCC(=O)OCCNc1c2ccccc2nc2cccc([N+](=O)[O-])c12)OCCNc1c2ccccc2nc2cccc([N+](=O)[O-])c12 | > 16 | > 16 | > 16 | > 16 |  |  | > 16 |  |  |  |  |  |  | 
5 | Cc1ccc(N)c2c(NCCO)c3ccccc3nc12 | 64 | 64 | 64 | > 64 |  |  | 64 |  |  |  |  |  |  | 
6 | Nc1cccc2nc3ccccc3c(NCCO)c12 | > 64 | > 64 | > 64 | > 64 |  |  | > 64 |  |  |  |  |  |  | 
7 | Cc1ccc([N+](=O)[O-])c2c(NCCOC(=O)CCCCC(=O)OCCNc3c4ccccc4nc4c(C)ccc([N+](=O)[O-])c34)c3ccccc3nc12 | > 32 | > 32 | > 32 | > 32 |  |  | > 32 |  |  |  |  |  |  | 
8 | OC(Cn1cncn1)(Cn1cncn1)c1ccc(F)cc1F [FLUCONAZOLE] |  |  |  | 8 |  |  |  | 8 | 1 | > 64 | > 64 | 16 | 4 | 
9 | COc1cc(NS(C)(=O)=O)ccc1Nc1c2ccccc2nc2ccccc12 |  |  |  |  |  |  |  |  |  |  |  |  |  | inhibition (Saccharomyces cerevisiae [21]): Active
10 | NCCCC[C@H](N)C(=O)OCCNc1c2ccccc2nc2cccc([N+](=O)[O-])c12 | 16 | 32 | 16 | 4 | >=1 | 1 (≈ 2.43 µM) | 0.5 | 4 | 4 | > 64 | > 64 | > 64 | 4 | MFC (Pichia kudriavzevii [8]): 64 µg/mL (≈ 156 µM); MFC (Candida parapsilosis [22]): 128 µg/mL (≈ 311 µM); MFC (Candida albicans [11]): 16 µg/mL (≈ 38.9 µM); MFC (Nakaseomyces glabratus [15]): 64 µg/mL (≈ 156 µM); Activity (Candida albicans [16]): Active; inhibition (Saccharomyces cerevisiae [18]): inactive
11 | Cc1ccc([N+](=O)[O-])c2c(NCCCN(C)CCCNc3c4ccccc4nc4c(C)ccc([N+](=O)[O-])c34)c3ccccc3nc12 | > 16 | > 16 | > 16 | > 16 | >=1 | 8 (≈ 13 µM) | 8 |  |  |  |  |  |  | 
12 | Cc1ccc([N+](=O)[O-])c2c(NCCNCCNCCNc3c4ccccc4nc4c(C)ccc([N+](=O)[O-])c34)c3ccccc3nc12 | > 32 | > 32 | > 32 | > 32 |  |  | 32 |  |  |  |  |  |  | 

From ChEMBL document CHEMBL4715897, “A new 1-nitro-9-aminoacridine derivative targeting yeast topoisomerase II able to overcome fluconazole-resistance” (2021)
